Measurements: US10828315B2 (Madrigal Pharmaceuticals, Inc., priority 2013, dated 2020)
Values joined by “and” are separate entries in the source; they are usually repeats but may differ in a detail not shown here. Equal values may be shown once. Read-outs that look alike come from different tables or passages of the source.

Experiments:
Human H3122 NSCLC cells = assay: Cell viability assay (CellTiter-Glo) in H3122 cells (Example 4); format: cell-based; settings: NCI-H3122
Experimental: Human H3122 NSCLC cells were obtained and grown in RPMI in the presence of fetal bovine serum (10%), 2 mM L-glutamine and antibiotics (100 IU/ml penicillin and 100 μg/ml streptomycin, Sigma Aldrich.) Cells were maintained at 37° C., 5% CO2 atmosphere.
Cell viability was measured using the CellTiter-Glo® assay (Promega). In brief, cells were plated in 96-well plates in triplicate at optimal seeding density (determined empirically) and incubated at 37° C., 5% CO2 atmosphere for 24 hr prior to the addition of drug or vehicle (0.3% DMSO) to the culture medium. At the end of the assay, CellTiter-Glo was added to the wells per manufacturer's recommendation, shaken for two minutes and incubated for 10 minutes at room temperature. Luminescence (0.1 sec) was measured with a Victor II microplate reader (Perkin Elmer) and the resulting data were used to calculate cell viability, normalized to vehicle control.
Cells as described above were treated with exemplary SDC-TRAPs and their viability determined as above as well. The following table illustrates the results.

H 3211 NSLC cells = assay: IC50 of continuous and pulsed exposure (Examples 9 and 10); format: cell-based
[1] = Artificial membrane permeability assay (PAMPA); settings: incubation 5 h, first table
HER2 [2] = assay: HER2 degradation in BT-474 cells (Example 3, Methods 1 and 2); format: cell-based, human
Source text: This example illustrates how a HER2 degradation assay may be used as a test to determine and select Hsp90-targeting moieties suitable for use in SDC-TRAPs of the invention, and further illustrates the ability of SDC-TRAPs to target cells preferentially expressing Hsp90. Such a test may further be used to determine the Hsp90 binding ability of SDC-TRAPs of the invention, as well as through competitive binding assays and cell-based Hsp90 client protein degradation assays known in the art.
After treatment, each cytoplasmic sample is prepared from 1×10^6 cells by incubation of cell lysis buffer (#9803, Cell Signaling Technology) on ice for 10 minutes. The resulting supernatant used as the cytosol fractions is dissolved with sample buffer for SDS-PAGE and run on a SDS-PAGE gel, blotted onto a nitrocellulose membrane by using semi-dry transfer. Non-specific binding to nitrocellulose is blocked with 5% skim milk in TBS with 0.5% Tween at room temperature for 1 hour, then probed with anti-HER2/ErB2 mAb (rabbit IgG, #2242, Cell Signaling) and anti-Tubulin (T9026, Sigma) as housekeeping control protein. HRP-conjugated goat anti-rabbit IgG (H+L) and HRP-conjugated horse anti-mouse IgG (H+L) are used as secondary Ab (#7074#7076, Cell Signaling) and LumiGLO reagent, 20× Peroxide (#7003, Cell Signaling) is used for visualization. The Hsp90 client protein HER2 is degraded when cells are treated with Hsp90-targeting moieties or SDC-TRAPs of the invention.
BT-474 cells are plated in the interior 60 wells of a 96 well black clear bottom plate (20,000 cells/well) in DMEM medium, with DMEM media in the surrounding 36 wells, and incubated at 37° C. with 5% CO2 overnight. On the second day, concentration response curve source plates are produced (10 point, 3-fold dilution of compounds in DMSO) followed by a 1:30 dilution in an intermediate dilution plate containing DMEM. Compound is transferred from the intermediate plate to the cell plate at a dilution of 1:10. The cells are then incubated at 37° C. with 5% CO2 for 24 hours.
Cells are then fixed in 4% phosphate-buffered paraformaldehyde for 30 minutes at room temperature and then permeabilized by washing five times with 0.1% Triton X-100 in PBS for 5 minutes at room temperature on a shaker. […] Cells are washed five times with 0.1% Tween-20 in PBS for 5 minutes at room temperature on a shaker and incubated with fluorescently-labeled secondary antibody (LI-COR, #926-32211) diluted 1:1000 in blocking buffer, and DRAQ5 nuclear stain (Biostatus Limited, # DRAQ5) diluted 1:10,000, at room temperature on a shaker for 1 hour. Cells are washed 5 times with 0.1% Tween-20 in PBS for 5 minutes at room temperature on a shaker and imaged on a LI-COR Odyssey imaging station. The raw data is normalized to DRAQ5 and the HER2 EC50 is calculated using XLfit™.

[3] = Tissue Distribution Data for SDC-TRAP-0045
[4] = Mouse plasma stability protocol, up to 1 h (Examples 16-18)
HER2 [5] = assay: HER2 degradation assay with BT-474 cell line (Example 12, FACS); format: cell-based, human
[6] = Stability in cell culture media (Example 18)
Experimental: 98 μL of DMEM+10% FBS, +1% P/S, +1.5 g/L sodium bicarbonate cell culture media was mixed with 2 μL of DMSO and aliquotted into 96-well plates at 250 μL per 0, 1, 2, and 18 hour time point.
3×50 μL media samples in 96 were held in 96-well plates at −80° C. until the last time point was extracted. 200 μL of methanol containing IS was added and mixed by vortex at 1500 rpm for 1.5 minutes at room temperature. The samples were centrifuged at 4400 rpm for 10 minutes at 8° C.

[7] = read-out: IC50, 72h-continuous, 7.5 × 10^3 cells/well, three replicate columns

CC(C)c1cc(-c2nnc(O)n2-c2ccc3c(ccn3CCOCCNC(=O)CCCC(=O)Nc3cccc4c3CN(C3CCC(=O)NC3=O)C4=O)c2)c(O)cc1O (centres unmarked) [SDC-TRAP-0015, N1-(2-(2-(5-(3-(2,4-dihydroxy-5-isopropylphenyl)-5-hydroxy-4H-1,2,4-triazol-4-yl)-1H-indol-1-yl)ethoxy)ethyl)-N5-(2-(2,6-dioxopiperidin-3-yl)-1-oxoisoindolin-4-yl)glutaramide]
IC50 (Human H3122 NSCLC cells): 1270 nM
IC50 (H 3211 NSLC cells; [7]): 796 nM

CC(C)c1cc(-c2nnc(O)n2-c2ccc3c(ccn3CCC(=O)Nc3cccc4c3CN(C3CCC(=O)NC3=O)C4=O)c2)c(O)cc1O (centres unmarked) [SDC-TRAP-0017, 3-(5-(3-(2,4-dihydroxy-5-isopropylphenyl)-5-hydroxy-4H-1,2,4-triazol-4-yl)-1H-indol-1-yl)-N-(2-(2,6-dioxopiperidin-3-yl)-1-oxoisoindolin-4-yl)propanamide]
IC50 (Human H3122 NSCLC cells): > 3000 nM

CC(C)c1cc(-c2nnc(O)n2-c2ccc3c(ccn3CCN(C)C(=O)CCCC(=O)Nc3cccc4c3CN(C3CCC(=O)NC3=O)C4=O)c2)c(O)cc1O (centres unmarked) [SDC-TRAP-0018, N1-(2-(5-(3-(2,4-dihydroxy-5-isopropylphenyl)-5-hydroxy-4H-1,2,4-triazol-4-yl)-1H-indol-1-yl)ethyl)-N5-(2-(2,6-dioxopiperidin-3-yl)-1-oxoisoindolin-4-yl)-N1-methylglutaramide]
Mass Retention [1]: 14.7%
IC50 (Human H3122 NSCLC cells): 620 nM

CC(C)c1cc(-c2nnc(O)n2-c2ccc3c(ccn3CCN(C)C(=O)c3ccc(CCc4c[nH]c5nc(N)[nH]c(=O)c45)cc3)c2)c(O)cc1O [SDC-TRAP-0019, 4-(2-(2-amino-4-oxo-4,7-dihydro-3H-pyrrolo[2,3-d]pyrimidin-5-yl)ethyl)-N-(2-(5-(3-(2,4-dihydroxy-5-isopropylphenyl)-5-hydroxy-4H-1,2,4-triazol-4-yl)-1H-indol-1-yl)ethyl)-N-methylbenzamide]
IC50 (Human H3122 NSCLC cells): 393 nM

CC(C)c1cc(-c2nnc(O)n2-c2ccc3c(ccn3CCOCCNC(=O)c3ccc(CCc4c[nH]c5nc(N)[nH]c(=O)c45)cc3)c2)c(O)cc1O [SDC-TRAP-0020, 4-(2-(2-amino-4-oxo-4,7-dihydro-3H-pyrrolo[2,3-d]pyrimidin-5-yl)ethyl)-N-(2-(2-(5-(3-(2,4-dihydroxy-5-isopropylphenyl)-5-hydroxy-4H-1,2,4-triazol-4-yl)-1H-indol-1-yl)ethoxy)ethyl)benzamide]
IC50 (Human H3122 NSCLC cells): 1740 nM

CC(C)c1cc(-c2nnc(O)n2-c2ccc3c(ccn3CCN(C)C(=O)NCC(=O)Nc3cccc4c3CN(C3CCC(=O)NC3=O)C4=O)c2)c(O)cc1O (centres unmarked) [SDC-TRAP-0021, 2-(3-(2-(5-(3-(2,4-dihydroxy-5-isopropylphenyl)-5-hydroxy-4H-1,2,4-triazol-4-yl)-1H-indol-1-yl)ethyl)-3-methylureido)-N-(2-(2,6-dioxopiperidin-3-yl)-1-oxoisoindolin-4-yl)acetamide]
IC50 (Human H3122 NSCLC cells): 717 nM

CCc1c2c(nc3ccc(OCC(=O)NCCn4ccc5cc(-n6c(O)nnc6-c6cc(C(C)C)c(O)cc6O)ccc54)cc13)-c1cc3c(c(=O)n1C2)COC(=O)C3(O)CC (centres unmarked) [SDC-TRAP-0023, 2-((4,11-diethyl-4-hydroxy-3,14-dioxo-3,4,12,14-tetrahydro-1H-pyrano[3′,4′:6,7]indolizino[1,2-b]quinolin-9-yl)oxy)-N-(2-(5-(3-(2,4-dihydroxy-5-isopropylphenyl)-5-hydroxy-4H-1,2,4-triazol-4-yl)-1H-indol-1-yl)ethyl)acetamide]
IC50 (Human H3122 NSCLC cells): 137 nM
IC50 (H 3211 NSLC cells; [7]): < 12 nM

CCc1c2c(nc3ccc(O)cc13)-c1cc3c(c(=O)n1C2)COC(=O)C3(CC)OC(=O)CCCNC(=O)c1cc2cc(-n3c(O)nnc3-c3cc(C(C)C)c(O)cc3O)ccc2n1C (centres unmarked) [SDC-TRAP-0024, 4,11-diethyl-9-hydroxy-3,14-dioxo-3,4,12,14-tetrahydro-1H-pyrano[3′,4′:6,7]indolizino[1,2-b]quinolin-4-yl 4-(5-(3-(2,4-dihydroxy-5-isopropylphenyl)-5-hydroxy-4H-1,2,4-triazol-4-yl)-1-methyl-1H-indole-2-carboxamido)butanoate]
IC50 (Human H3122 NSCLC cells): 99 nM
IC50 (HER2 [2]): > 5000 nM
IC50 (H 3211 NSLC cells; read-out: IC50, 1h-pulse/71h-compound free, 7.5 × 10^3 cells/well, two replicate columns): 697 nM and 2210 nM
IC50 (H 3211 NSLC cells; [7]): < 12 nM and 118 nM and 104 nM

CCc1c2c(nc3ccc(OCC(=O)N(C)CCn4ccc5cc(-n6c(O)nnc6-c6cc(C(C)C)c(O)cc6O)ccc54)cc13)-c1cc3c(c(=O)n1C2)COC(=O)C3(O)CC (centres unmarked) [SDC-TRAP-0027, 2-((4,11-diethyl-4-hydroxy-3,14-dioxo-3,4,12,14-tetrahydro-1H-pyrano[3′,4′:6,7]indolizino[1,2-b]quinolin-9-yl)oxy)-N-(2-(5-(3-(2,4-dihydroxy-5-isopropylphenyl)-5-hydroxy-4H-1,2,4-triazol-4-yl)-1H-indol-1-yl)ethyl)-N-methylacetamide]
IC50 (Human H3122 NSCLC cells): 1350 nM
IC50 (H 3211 NSLC cells; 72 h, read-out: IC50, 72h-continuous, 7.5 × 10^3 cells/well, three replicate columns): 984 nM

CCc1c2c(nc3ccc(OC(=O)N4CCN(c5ccc(-n6c(O)nnc6-c6cc(C(C)C)c(O)cc6O)cc5)CC4)cc13)-c1cc3c(c(=O)n1C2)COC(=O)C3(O)CC (centres unmarked) [SDC-TRAP-0045, 4,11-diethyl-4-hydroxy-3,14-dioxo-3,4,12,14-tetrahydro-1H-pyrano[3′,4′:6,7]indolizino[1,2-b]quinolin-9-yl 4-(4-(3-(2,4-dihydroxy-5-isopropylphenyl)-5-hydroxy-4H-1,2,4-triazol-4-yl)phenyl)piperazine-1-carboxylate]
Plasma Conc. ([3]; Time (h) 0.083): 689000 nM
Tumor Conc. ([3]; Time (h) 0.083): 4.30 nmol/g of tissue
Tumor/Plasma Ratio ([3]; Time (h) 0.083): 0.00624
Plasma Conc. ([3]; Time (h) 6): 1880 nM
Tumor Conc. ([3]; Time (h) 6): 2.55 nmol/g of tissue
Tumor/Plasma Ratio ([3]; Time (h) 6): 1.35
Plasma Conc. ([3]; Time (h) 12): 141 nM
Tumor Conc. ([3]; Time (h) 12): 1.13 nmol/g of tissue
Tumor/Plasma Ratio ([3]; Time (h) 12): 8.02
Plasma Conc. ([3]; Time (h) 24): 11.3 nM
Tumor Conc. ([3]; Time (h) 24): BQL
Plasma Conc. ([3]; Time (h) 48): BQL
Tumor Conc. ([3]; Time (h) 48): BQL
IC50 (HER2 [2]): 464 nM
% Remaining (1 h) ([4]; % Remaining of parent after 1 h incubation in mouse plasma at 37° C. (10 μM)): 45.0%
% Remaining (1 h, 37° C.) ([4]; mouse plasma, 1 h, 37° C.): 45%
Mouse (10 μM) % Remaining 1 h (37° C.)§ ([4]; mouse plasma, data from single parent peak): 34%
Mouse (10 μM) % Remaining 1 h (37° C.)* ([4]; mouse plasma, sum of both peaks): 45%
IC50 (HER2 [5]): 464 nM
Media (5 μM) % Remaining 19 h (37° C.) [6]: 50%
Media (5 μM) % Remaining 1 h (37° C.)§ ([6]; data from single parent peak): 72%
Media (5 μM) % Remaining 1 h (37° C.)* ([6]; sum of both peaks): 77%
